Laboratory results: PubChem BioAssay AID1963839 (Molecular Pharmacology Branch, DTP, NCI, 2024)
pIC50: −log10 of the molar value.

Tested on: 817829-284-R-J1-PDC complex spheroid viability
Assay: Anticancer human tumor 817829-284-R-J1-PDC patient-derived colon adenocarcinoma cell line growth inhibition [POLQ]
Conditions: for pIC50: curve of first compound; for viability, T/C: stronger effect = lower value
Outline: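 Patient-derived tumour cells were co-cultured with HUVEC and mesenchymal stem cells as multicellular spheroids at 37 °C. They were treated with POLQ inhibitors (novobiocin, ART-558, RP6685) alone or combined with other agents. Top concentrations were at or near clinical Cmax (otherwise 10 microM; SN-38 at 1 microM), decreasing in half-log steps.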
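Also: spheroids exposed to compounds for 7 days.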
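For viability, T/C in this document: 100% = DMSO vehicle-treated spheroids.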

Molecule `O=C(c1cc(Cc2n[nH]c(=O)c3ccccc23)ccc1F)N1CCN(C(=O)C2CC2)CC1` + Nc1ccc(C#CCN(C(=O)Cc2ncc(C(F)(F)F)cc2C(F)(F)F)c2ccc(F)cc2)nn1 has a pIC50 (second compound 0.0316 µM) of 5.29, a pIC50 (second compound 0.1 µM) of 5.60 and a pIC50 (second compound 0.316 µM) of 5.40. For the same molecule, the pIC50 (second compound 1 µM) was 5.34, the pIC50 (second compound 3.16 µM) was 5.37 and the pIC50 (second compound 10 µM) was 5.32. For the same molecule, the viability, T/C (second compound 0.0316 µM, first compound 0.0316 µM) was 118%, the viability, T/C (second compound 0.0316 µM, first compound 0.1 µM) was 96% and the viability, T/C (second compound 0.0316 µM, first compound 0.316 µM) was 93.7%. For the same molecule, the viability, T/C (second compound 0.0316 µM, first compound 1 µM) was 91.6%, the viability, T/C (second compound 0.0316 µM, first compound 3.16 µM) was 58.1% and the viability, T/C (second compound 0.0316 µM, first compound 10 µM) was 32.9%. It also gave a viability, T/C (second compound 0.1 µM, first compound 0.0316 µM) of 108%, a viability, T/C (second compound 0.1 µM, first compound 0.1 µM) of 103% and a viability, T/C (second compound 0.1 µM, first compound 0.316 µM) of 83.2%. It also gave a viability, T/C (second compound 0.1 µM, first compound 1 µM) of 66.8%, a viability, T/C (second compound 0.1 µM, first compound 3.16 µM) of 47% and a viability, T/C (second compound 0.1 µM, first compound 10 µM) of 27.4%. The viability, T/C (second compound 0.316 µM, first compound 0.0316 µM) was 90.3%, the viability, T/C (second compound 0.316 µM, first compound 0.1 µM) was 94% and the viability, T/C (second compound 0.316 µM, first compound 0.316 µM) was 98.1%. For the same molecule, the viability, T/C (second compound 0.316 µM, first compound 1 µM) was 93.5%, the viability, T/C (second compound 0.316 µM, first compound 3.16 µM) was 55% and the viability, T/C (second compound 0.316 µM, first compound 10 µM) was 30.9%. The viability, T/C (second compound 1 µM, first compound 0.0316 µM) was 106%, the viability, T/C (second compound 1 µM, first compound 0.1 µM) was 94.5% and the viability, T/C (second compound 1 µM, first compound 0.316 µM) was 89.6%. It also gave a viability, T/C (second compound 1 µM, first compound 1 µM) of 85.2%, a viability, T/C (second compound 1 µM, first compound 3.16 µM) of 58.2% and a viability, T/C (second compound 1 µM, first compound 10 µM) of 27.8%. It also gave a viability, T/C (second compound 3.16 µM, first compound 0.0316 µM) of 113%, a viability, T/C (second compound 3.16 µM, first compound 0.1 µM) of 104% and a viability, T/C (second compound 3.16 µM, first compound 0.316 µM) of 112%. It also gave a viability, T/C (second compound 3.16 µM, first compound 1 µM) of 92.5%, a viability, T/C (second compound 3.16 µM, first compound 3.16 µM) of 58.6% and a viability, T/C (second compound 3.16 µM, first compound 10 µM) of 26%. For the same molecule, the viability, T/C (second compound 10 µM, first compound 0.0316 µM) was 104%, the viability, T/C (second compound 10 µM, first compound 0.1 µM) was 94.8% and the viability, T/C (second compound 10 µM, first compound 0.316 µM) was 86.7%. The viability, T/C (second compound 10 µM, first compound 1 µM) was 94.8%, the viability, T/C (second compound 10 µM, first compound 3.16 µM) was 63.5% and the viability, T/C (second compound 10 µM, first compound 10 µM) was 25.1%.
